Measurements reported in PubChem BioAssay AID977613 (Broad Institute, 2014).
The source made the active and inactive calls. No rule for the calls is given here.

System: Broad 7084-01 inhibitor HTS, set 2
Assay: inhibitors in Broad screen 7084-01, set 2 (AID 977613);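 also: host cells are infected with parasite promastigotes that become internalized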

Structure (SMILES)	active concentration
COc1ccc2c3c([nH]c2c1)[C@@H](CO)N(C(=O)Nc1ccc(F)cc1)CC31CN(C(=O)c2ccccc2F)C1	> 10 µM (inactive)
COc1ccc2c3c([nH]c2c1)[C@@H](CO)N(Cc1ccccc1OC)CC31CN(C(C)=O)C1	> 10 µM (inactive)
O=C(Nc1ccccc1F)N1CC(=O)N2[C@H](CO)[C@@H](c3ccc(-c4cccnc4)cc3)[C@@H]2C1	> 10 µM (inactive)
O=C(NCc1ccccn1)[C@@H]1[C@@H](CO)[C@@H]2Cn3c(ccc(C4=CCCC4)c3=O)[C@H]1N2Cc1cccnc1	> 10 µM (inactive)
O=C(CC(F)(F)F)N1C[C@H]2[C@@H](c3ccccc31)[C@@H](CO)N2CC1CCOCC1	> 10 µM (inactive)
CCNC(=O)Nc1ccc2c(c1)C(=O)N(C)[C@H]1CC[C@H](CC(=O)N[C@@H](C)c3ccccc3)O[C@H]1CO2	> 10 µM (inactive)
CN1C(=O)c2cc(NC(=O)C3CCOCC3)ccc2OC[C@@H]2O[C@@H](CC(=O)NCCc3ccncc3)CC[C@H]21	> 10 µM (inactive)
COc1ccc2c3c(n(C)c2c1)[C@H](CO)N(C(=O)Nc1ccc(F)cc1)CC31CCN(C(=O)c2ccc3c(c2)OCO3)CC1	> 10 µM (inactive)
O=S(=O)(c1ccccc1)N1CC[C@@H]2[C@H]1c1cc(Br)ccc1N[C@@H]2CO	> 10 µM (inactive)
COc1cccc(NC(=O)N2C[C@@H](O)COC[C@@H]3O[C@@H](CC(=O)NC4CCC4)CC[C@H]32)c1	> 10 µM (inactive)
O=C(C[C@@H]1CC[C@@H]2[C@H](COC[C@H](O)CN2C(=O)c2ccccc2)O1)Nc1ccc(-c2ccccc2)cc1	> 10 µM (inactive)
O=C(C[C@@H]1CC[C@@H]2[C@H](COC[C@H](O)CN2Cc2nccs2)O1)NCc1ccccc1	> 10 µM (inactive)
COc1cccc(-c2ccc3c(c2)[C@@H]2[C@@H](CCN2S(=O)(=O)c2cn(C)cn2)[C@@H](CO)N3)c1	> 10 µM (inactive)
CN(C)C(=O)C[C@@H]1CC[C@H]2[C@@H](COC[C@@H](O)CN2CC2CCCC2)O1	> 10 µM (inactive)
COc1cccc(-c2ccc3c(c2)[C@H]2[C@H](CCN2C(=O)Cc2ccccc2)[C@H](CO)N3)c1	> 10 µM (inactive)
CC(=O)N1CC[C@@H]2[C@@H](CO)Nc3ccc(C#Cc4cccnc4)cc3[C@@H]21	> 10 µM (inactive)
O=C1CNC[C@H]2[C@@H](c3ccc(-c4ccccc4F)cc3)[C@H](CO)N12	> 10 µM (inactive)
Cn1cnc(S(=O)(=O)N2C[C@@H](O)COC[C@H]3O[C@H](CC(=O)NC4CCCC4)CC[C@@H]32)c1	> 10 µM (inactive)
CC=Cc1ccc2n(c1=O)C[C@H]1[C@H](CO)[C@@H](C(=O)N[C@@H](C)c3ccccc3)N(C(=O)c3cnccn3)[C@@H]21 (mixture of isomers)	> 10 µM (inactive)
COc1cccc(C#Cc2ccc3c(c2)[C@@H]2[C@@H](CCN2C(=O)CC2CC2)[C@@H](CO)N3)c1	> 10 µM (inactive)
O=C(Nc1ccc(F)cc1)N1[C@@H](CO)[C@@H]2c3ccccc3NC[C@@H]21	> 10 µM (inactive)
O=C(c1ccccn1)N1CC[C@@H]2[C@H](CO)Nc3ccc(Br)cc3[C@@H]21	> 10 µM (inactive)
CN1C(=O)c2cc(NS(C)(=O)=O)ccc2OC[C@H]2O[C@H](CC(=O)N3CCOCC3)CC[C@H]21	> 10 µM (inactive)
Cc1ccc(NC(=O)Nc2ccc3c(c2)C(=O)N(C)[C@@H]2CC[C@H](CC(=O)NCC(F)(F)F)O[C@@H]2CO3)cc1	> 10 µM (inactive)

Structure (SMILES)	active concentration
O=C(CC(F)(F)F)N1C[C@@H]2[C@H](c3ccccc31)[C@H](CO)N2CC1CCOCC1	> 10 µM (inactive)
O=C(C[C@H]1CC[C@H]2[C@@H](COC[C@@H](O)CN2Cc2nccs2)O1)NCc1ccccc1	> 10 µM (inactive)
COc1ccccc1CN1[C@@H]2c3ccc(C4=CCCC4)c(=O)n3C[C@H]1[C@H](CO)[C@H]2C(=O)N(C)C	> 10 µM (inactive)
O=C([C@H]1[C@H](CO)[C@H]2Cn3c(cccc3=O)[C@H]2N1Cc1ccccc1Cl)N1CCCCC1	> 10 µM (inactive)
CCNC(=O)C[C@@H]1CC[C@H]2[C@@H](COC[C@@H](O)CN2C(=O)C2CC2)O1	> 10 µM (inactive)
Cc1ccc(CN2CC(=O)N3[C@H](C2)[C@@H](c2ccc(-c4ccccc4F)cc2)[C@@H]3CO)cc1	> 10 µM (inactive)
C/C=C/c1ccc([C@H]2[C@@H](CO)N(CCC(F)(F)F)C23CN(C(=O)COC)C3)cc1	> 10 µM (inactive)
COc1ccc2c3c([nH]c2c1)[C@H](CO)N(C(C)=O)CC31CN(Cc2ccccc2Cl)C1	> 10 µM (inactive)
O=S(=O)(c1ccccc1)N1C[C@@H]2[C@H](c3ccccc31)[C@H](CO)N2Cc1ccccn1	> 10 µM (inactive)
COCC(=O)N1CC[C@@H]2[C@H]1c1cc(-c3ccc(F)cc3)ccc1N(C)[C@@H]2CO	> 10 µM (inactive)
O=C(C[C@H]1CC[C@H]2[C@@H](COC[C@@H](O)CN2Cc2cccc(C(F)(F)F)c2)O1)NCc1ccccc1	> 10 µM (inactive)
Cc1cccc(S(=O)(=O)N2C[C@@H](O)COC[C@@H]3O[C@H](CC(=O)Nc4ccccc4)CC[C@H]32)c1	> 10 µM (inactive)
COc1ccc2c3c(n(C)c2c1)[C@H](CO)N(Cc1cccc(F)c1)CC31CCN(C(=O)Cc2ccccc2)CC1	> 10 µM (inactive)
O=C1CN(S(=O)(=O)Cc2ccccc2)C[C@@H]2[C@H](c3ccc(C#Cc4ccccc4)cc3)[C@H](CO)N12	> 10 µM (inactive)
Cc1cccc(S(=O)(=O)N2CC[C@@H]3[C@H](CO)Nc4ccc(C#Cc5ccccc5F)cc4[C@@H]32)c1	> 10 µM (inactive)
COc1ccccc1C(=O)Nc1ccc2c(c1)C(=O)N(C)[C@H]1CC[C@@H](CC(=O)NCCc3ccncc3)O[C@H]1CO2	> 10 µM (inactive)
CC(C)NC(=O)N1CC2(C1)[C@H](c1ccccc1)[C@H](CO)N2Cc1cncnc1	< 10 µM
O=C(c1cnccn1)N1CC[C@@H]2[C@H](CO)Nc3ccc(-c4ccccc4F)cc3[C@@H]21	> 10 µM (inactive)
O=C(Nc1cccc(Cl)c1)N1C[C@@H]2[C@H](c3ccccc31)[C@H](CO)N2CC1CCOCC1	> 10 µM (inactive)
O=C(c1ccccc1F)N1CC(=O)N2[C@H](CO)[C@@H](c3ccc(C#Cc4ccccc4)cc3)[C@@H]2C1	> 10 µM (inactive)
N#C[C@H]1[C@@H](c2ccccc2C2=CCCC2)[C@H](CO)N1S(=O)(=O)c1ccccc1	> 10 µM (inactive)
O=C(C[C@@H]1CC[C@H]2[C@@H](COC[C@H](O)CN2Cc2cc(F)ccc2F)O1)NCc1ccc(F)cc1	> 10 µM (inactive)
N#C[C@@H]1[C@@H](c2ccccc2-c2ccccc2F)[C@@H](CO)N1C(=O)Cc1ccccc1	> 10 µM (inactive)
O=C(c1cccc(F)c1)N1CCCCN2[C@@H](CO)[C@@H](c3ccc(C#CC4(O)CCCC4)cc3)[C@@H]2C1	> 10 µM (inactive)

Structure (SMILES)	active concentration
O=C(Nc1ccccc1)N1C[C@@H]2[C@H](c3ccccc31)[C@H](CO)N2Cc1ccccc1Cl	> 10 µM (inactive)
CCN1CC(=O)N2[C@@H](CO)[C@@H](c3ccc(Br)cc3)[C@@H]2C1	> 10 µM (inactive)
O=C(C1CCOCC1)N1CC(=O)N2[C@@H](CO)[C@@H](c3ccc(C#CCc4ccccc4)cc3)[C@@H]2C1	> 10 µM (inactive)
Cc1ccccc1-c1ccccc1[C@@H]1[C@@H](C#N)N(C(=O)c2cccc(F)c2)[C@H]1CO	> 10 µM (inactive)
O=C(Nc1cc(F)ccc1F)N1CC(=O)N2[C@H](C1)[C@@H](c1ccc(/C=C/c3ccccc3)cc1)[C@@H]2CO	> 10 µM (inactive)
CN1CCN(C(=O)C[C@@H]2CC[C@@H]3[C@H](COC[C@@H](O)CN3CC3CC3)O2)CC1	> 10 µM (inactive)
Cc1ccccc1-c1ccccc1[C@H]1[C@@H](C#N)N(C(=O)c2cccc(F)c2)[C@H]1CO	> 10 µM (inactive)
COCC(=O)N1[C@H](CO)[C@H](c2ccccc2-c2ccc(C)cc2)[C@@H]1C#N	> 10 µM (inactive)
N#C[C@H]1[C@H](c2ccccc2C2=CCCCC2)[C@H](CO)N1C(=O)c1cccc(F)c1	> 10 µM (inactive)
O=C(C[C@@H]1CC[C@H]2[C@@H](COC[C@@H](O)CN2Cc2cccc(C(F)(F)F)c2)O1)NCc1ccccc1	> 10 µM (inactive)
O=C(c1cccc(F)c1)N1C[C@@H]2[C@H](c3ccccc31)[C@H](CO)N2C(=O)C1CCOCC1	> 10 µM (inactive)
Cc1ccc(CN2CC(=O)N3[C@H](CO)[C@@H](c4ccc(-c5ccccc5F)cc4)[C@H]3C2)cc1	> 10 µM (inactive)
O=C(Nc1ccccc1)N1C[C@H]2[C@@H](c3ccccc31)[C@H](CO)N2Cc1ccccc1Cl	> 10 µM (inactive)
CN(C)C(=O)C[C@H]1CC[C@@H]2[C@H](COC[C@H](O)CN2CC2CCCC2)O1	> 10 µM (inactive)
O=C(Nc1ccccc1)N1CC(=O)N2[C@H](C1)[C@@H](c1ccc(C#CC3CCCCC3)cc1)[C@@H]2CO	> 10 µM (inactive)
Cn1cnc(S(=O)(=O)N2C[C@H](O)COC[C@H]3O[C@@H](CC(=O)NC4CCCC4)CC[C@@H]32)c1	> 10 µM (inactive)
O=C(C[C@H]1CC[C@@H]2[C@H](COC[C@@H](O)CN2S(=O)(=O)c2cccc(Cl)c2)O1)NC1CCC1	> 10 µM (inactive)
C/C=C/c1ccc2c(c1)[C@@H]1[C@@H](CCN1C(=O)Cc1cccnc1)[C@@H](CO)N2C	> 10 µM (inactive)
O=C([C@@H]1[C@@H](CO)[C@@H]2Cn3c(ccc(C4=CCCCC4)c3=O)[C@H]1N2Cc1nccs1)N1CCCCC1	> 10 µM (inactive)
O=C(C[C@@H]1CC[C@@H]2[C@H](COC[C@H](O)CN2CC2CCOCC2)O1)NCC1CCCCC1	> 10 µM (inactive)
COc1ccc(CN2[C@H](CO)[C@H]3c4ccccc4NC[C@H]32)cc1	< 10 µM
O=C(C[C@@H]1CC[C@H]2[C@@H](COC[C@@H](O)CN2Cc2cc(F)cc(F)c2)O1)NC1CCC1	> 10 µM (inactive)
